Activity calls are given as the source filed them.

Holding throughout (type): functional
The subject of one test is CHO-K1. Briefly: Counterscreen for antagonists of the orexin 1 receptor (OX1R; HCRTR1): Homogeneous time resolved fluorescence (HTRF)-based cell-based dose response assay to identify antagonists of the parental CHO-K1 cell line. [Related pubchem assays (depositor defined):AID434989, AID435008, AID463079, AID485270, AID492963, AID492964, AID492965, AID493232, AID504699, AID504701]. Conditions: Cricetulus griseus.

Test [1] in a line: Counterscreen for antagonists of the orexin 1 receptor (OX1R; HCRTR1): Fluorescence-based cell-based high throughput dose response assay to identify antagonists of the parental CHO cell line. [Related pubchem assays (depositor defined):AID434989, AID435008, AID463079, AID485270, AID492963, AID492964, AID492965, AID493232, AID504699, AID504701]. For orientation: Counterscreens check selectivity or assay interference.

Test [2] has as its target T1, Orexin/Hypocretin receptor type 1 (Homo sapiens, UniProt O43613).
T1 sequence (O43613 whole entry): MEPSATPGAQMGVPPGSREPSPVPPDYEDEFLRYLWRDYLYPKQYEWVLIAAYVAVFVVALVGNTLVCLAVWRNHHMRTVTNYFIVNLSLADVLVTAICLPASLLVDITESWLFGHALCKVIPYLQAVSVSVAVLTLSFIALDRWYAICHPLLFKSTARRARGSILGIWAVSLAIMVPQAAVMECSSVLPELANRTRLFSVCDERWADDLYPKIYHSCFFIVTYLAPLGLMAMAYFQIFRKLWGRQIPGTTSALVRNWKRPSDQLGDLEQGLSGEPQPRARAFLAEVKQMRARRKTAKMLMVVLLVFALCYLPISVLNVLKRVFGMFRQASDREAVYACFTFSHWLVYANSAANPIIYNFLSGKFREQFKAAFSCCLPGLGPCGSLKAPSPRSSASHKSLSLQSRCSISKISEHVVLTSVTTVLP
The test is described as follows: Homogeneous Time Resolved Fluorescence (HTRF)-based cell-based high throughput dose response assay for antagonists of the orexin 1 receptor (OX1R; HCRTR1). [Related pubchem assays (depositor defined):AID434989, AID435008, AID463079, AID485270, AID492963, AID492964, AID492965, AID493232, AID504717, AID504718]. (Time-resolved FRET reads energy transfer from a long-lived donor to a nearby acceptor.)

Test [3] concerns the target T1, Orexin/Hypocretin receptor type 1. Briefly: Fluorescence-based cell-based high throughput dose response assay for antagonists of the orexin 1 receptor (OX1R; HCRTR1). [Related pubchem assays (depositor defined):AID434989, AID435008, AID463079, AID485270, AID492963, AID492964, AID492965, AID493232, AID504717, AID504718].
Test [4] addresses T2, Orexin receptor type 2 (Homo sapiens, UniProt O43614).
T2 sequence (O43614 whole entry): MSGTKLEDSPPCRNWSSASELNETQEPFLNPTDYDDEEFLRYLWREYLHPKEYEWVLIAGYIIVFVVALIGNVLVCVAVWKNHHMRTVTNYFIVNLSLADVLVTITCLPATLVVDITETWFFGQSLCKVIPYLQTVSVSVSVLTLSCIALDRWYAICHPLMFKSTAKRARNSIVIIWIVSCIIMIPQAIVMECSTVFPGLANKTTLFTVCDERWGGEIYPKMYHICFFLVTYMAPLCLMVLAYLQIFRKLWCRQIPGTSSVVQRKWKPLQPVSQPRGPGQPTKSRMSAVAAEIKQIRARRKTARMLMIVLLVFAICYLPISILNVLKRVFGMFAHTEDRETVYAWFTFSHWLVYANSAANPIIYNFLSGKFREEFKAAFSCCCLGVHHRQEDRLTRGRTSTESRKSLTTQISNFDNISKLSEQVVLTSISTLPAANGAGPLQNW
The test is described as follows: Counterscreen assay for antagonists of the orexin 1 receptor (OX1R; HCRTR1): Fluorescence-based cell-based dose response assay for antagonists of the orexin 2 receptor (OX2R; HCRTR2), run by assay provider.

Test [5] addresses T2, Orexin receptor type 2. The test is described as follows: Counterscreen assay for antagonists of the orexin 1 receptor (OX1R; HCRTR1): Homogeneous Time Resolved Fluorescence (HTRF)-based cell-based dose response assay for antagonists of the orexin 2 receptor (OX2R; HCRTR2), run by assay provider.
A short description of test [6]: Luminescence Cell-Based Dose Confirmation HTS to Identify Activators of 5'UTR Stem-Loop Driven Alpha-Synuclein mRNA Translation in H4 Neuroglioblastoma Cells. [Related pubchem assays: 1829 (Project Summary), 1814 (Primary HTS)].
The nature of test [7]: Luminescence Cell-Based Dose Response HTS to Identify Activators of Luciferase Translation or Activity in H4 […] Cells. [Related pubchem assays: 1829 (Project Summary), 1814 (Primary HTS)].
Another test concerns H4. The test is described as follows: Luminescence Cell-Based Dose Response HTS to Identify Activators of 5'UTR Stem-Loop Driven Prion Protein mRNA Translation in H4 Neuroglioblastoma Cells. [Related pubchem assays: 1829 (Project Summary), 1814 (Primary HTS)]. The conditions noted are these: Homo sapiens.
Test [8] addresses T3, Sentrin-specific protease 8 (Homo sapiens, UniProt Q96LD8).
T3 sequence (Q96LD8 whole entry): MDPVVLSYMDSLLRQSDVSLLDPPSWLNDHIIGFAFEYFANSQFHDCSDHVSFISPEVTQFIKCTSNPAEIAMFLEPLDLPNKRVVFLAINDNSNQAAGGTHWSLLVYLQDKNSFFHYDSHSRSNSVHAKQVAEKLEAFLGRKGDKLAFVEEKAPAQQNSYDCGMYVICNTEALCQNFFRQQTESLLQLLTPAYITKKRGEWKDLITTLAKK
The test is described as follows: SENP8 protease inhibitors, SAR follow-up, biochemical, luminescence (AID 504501).

Test [9] deals with T4, Caspase-3 (Homo sapiens, UniProt P42574).
T4 sequence (P42574 whole entry): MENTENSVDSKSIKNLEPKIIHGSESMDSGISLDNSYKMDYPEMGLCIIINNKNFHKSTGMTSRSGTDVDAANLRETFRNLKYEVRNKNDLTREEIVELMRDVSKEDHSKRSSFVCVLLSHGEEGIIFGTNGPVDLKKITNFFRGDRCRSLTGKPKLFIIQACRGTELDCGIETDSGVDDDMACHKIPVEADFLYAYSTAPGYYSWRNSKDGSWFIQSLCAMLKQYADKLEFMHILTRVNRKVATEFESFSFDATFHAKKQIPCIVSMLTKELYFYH
Briefly: caspase-3 inhibitors as off-family protease, SAR follow-up, selectivity assay for SENP protease inhibitor project, biochemical, luminescence, set 2 (AID 588599).

The target in test [10] is T3, Sentrin-specific protease 8. Briefly: SENP8 protease inhibitors, SAR follow-up, biochemical, luminescence, set 2 (AID 588601).
Test [11] has as its target T4, Caspase-3. The test is described as follows: SAR Analysis of small molecule inhibitors of Sentrin-specific proteases (SENPs) using a Caspase-3 Selectivity assay. [Related pubchem assays (depositor defined):AID2540, AID2599, AID434973, AID489001].
Test [12] deals with T5, Sentrin-specific protease 7 (Homo sapiens, UniProt Q9BQF6).
T5 sequence (Q9BQF6 whole entry): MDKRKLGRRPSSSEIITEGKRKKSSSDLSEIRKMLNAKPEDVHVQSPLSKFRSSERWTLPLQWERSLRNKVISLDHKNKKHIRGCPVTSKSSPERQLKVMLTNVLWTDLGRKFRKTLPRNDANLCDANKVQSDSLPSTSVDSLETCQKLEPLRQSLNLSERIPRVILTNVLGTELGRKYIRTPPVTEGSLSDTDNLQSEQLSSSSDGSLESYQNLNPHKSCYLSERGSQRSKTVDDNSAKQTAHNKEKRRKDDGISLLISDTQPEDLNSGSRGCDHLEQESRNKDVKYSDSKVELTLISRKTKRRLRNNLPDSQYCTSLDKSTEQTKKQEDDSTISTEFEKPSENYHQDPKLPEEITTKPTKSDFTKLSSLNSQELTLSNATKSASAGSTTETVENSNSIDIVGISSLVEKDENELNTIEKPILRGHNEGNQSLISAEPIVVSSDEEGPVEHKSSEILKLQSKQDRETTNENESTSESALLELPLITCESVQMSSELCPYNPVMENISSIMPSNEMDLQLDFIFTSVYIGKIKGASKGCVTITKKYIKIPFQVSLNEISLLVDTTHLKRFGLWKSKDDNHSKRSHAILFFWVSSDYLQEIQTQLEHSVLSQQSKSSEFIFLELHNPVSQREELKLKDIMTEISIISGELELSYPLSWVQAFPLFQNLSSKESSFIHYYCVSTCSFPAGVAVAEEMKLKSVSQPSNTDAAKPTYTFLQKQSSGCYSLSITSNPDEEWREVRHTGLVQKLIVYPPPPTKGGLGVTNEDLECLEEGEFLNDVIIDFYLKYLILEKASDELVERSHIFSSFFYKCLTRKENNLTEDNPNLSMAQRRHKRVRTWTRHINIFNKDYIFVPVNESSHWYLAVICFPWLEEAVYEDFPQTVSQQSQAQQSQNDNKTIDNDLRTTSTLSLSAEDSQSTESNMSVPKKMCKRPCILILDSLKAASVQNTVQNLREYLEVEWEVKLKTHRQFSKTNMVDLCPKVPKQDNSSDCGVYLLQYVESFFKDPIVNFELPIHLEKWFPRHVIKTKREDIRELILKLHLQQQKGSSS
The test is described as follows: SENP7 protease inhibitors, SAR follow-up, biochemical, luminescence, set 2 (AID 588600).

Test [13] has as its target T6, Sentrin-specific protease 6 (Homo sapiens, UniProt Q9GZR1).
T6 sequence (Q9GZR1 whole entry): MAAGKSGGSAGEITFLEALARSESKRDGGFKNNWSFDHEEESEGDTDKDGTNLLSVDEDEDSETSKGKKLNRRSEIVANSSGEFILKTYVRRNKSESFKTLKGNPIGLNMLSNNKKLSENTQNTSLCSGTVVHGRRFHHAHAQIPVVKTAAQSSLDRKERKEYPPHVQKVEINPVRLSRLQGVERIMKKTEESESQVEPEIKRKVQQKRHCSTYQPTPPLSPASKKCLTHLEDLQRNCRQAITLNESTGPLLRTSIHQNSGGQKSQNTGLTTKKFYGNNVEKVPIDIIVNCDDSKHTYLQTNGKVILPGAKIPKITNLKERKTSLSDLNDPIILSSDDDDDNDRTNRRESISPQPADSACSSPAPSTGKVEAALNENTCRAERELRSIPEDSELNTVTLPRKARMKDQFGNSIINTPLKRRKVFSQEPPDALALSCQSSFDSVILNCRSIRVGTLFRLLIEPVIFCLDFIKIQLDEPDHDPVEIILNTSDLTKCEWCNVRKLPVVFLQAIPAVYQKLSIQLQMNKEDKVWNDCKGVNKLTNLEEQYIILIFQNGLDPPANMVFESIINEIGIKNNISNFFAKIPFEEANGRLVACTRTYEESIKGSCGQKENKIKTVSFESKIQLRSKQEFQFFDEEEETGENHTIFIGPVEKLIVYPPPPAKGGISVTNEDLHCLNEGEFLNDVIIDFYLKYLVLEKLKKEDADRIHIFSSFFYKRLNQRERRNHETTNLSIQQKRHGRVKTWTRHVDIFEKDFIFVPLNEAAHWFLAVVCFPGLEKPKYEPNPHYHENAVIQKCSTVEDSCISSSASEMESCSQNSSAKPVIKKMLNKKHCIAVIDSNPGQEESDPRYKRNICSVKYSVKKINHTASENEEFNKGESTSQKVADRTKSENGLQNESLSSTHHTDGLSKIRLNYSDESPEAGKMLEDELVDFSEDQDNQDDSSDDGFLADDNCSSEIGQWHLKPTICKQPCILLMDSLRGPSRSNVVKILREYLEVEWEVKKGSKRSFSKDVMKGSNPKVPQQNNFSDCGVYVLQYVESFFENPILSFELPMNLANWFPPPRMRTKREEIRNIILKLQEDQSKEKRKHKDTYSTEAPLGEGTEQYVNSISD
Briefly: SAR Analysis of small molecule inhibitors of Sentrin-specific protease 6 (SENP6) using a Luminescent assay. [Related pubchem assays (depositor defined):AID2582, AID2599].

Test [14] has as its target T6, Sentrin-specific protease 6. The test is described as follows: SENP6 protease inhibitors, SAR follow-up, biochemical, luminescence, set 2 (AID 588598).
Test [15] has as its target T5, Sentrin-specific protease 7. Briefly: SENP7 protease inhibitors, SAR follow-up, biochemical, luminescence (AID 504497).
For test [16], the target named is Serine/threonine-protein kinase pim-1 (Homo sapiens, UniProt P11309).
Serine/threonine-protein kinase pim-1, sequence (P11309 whole entry): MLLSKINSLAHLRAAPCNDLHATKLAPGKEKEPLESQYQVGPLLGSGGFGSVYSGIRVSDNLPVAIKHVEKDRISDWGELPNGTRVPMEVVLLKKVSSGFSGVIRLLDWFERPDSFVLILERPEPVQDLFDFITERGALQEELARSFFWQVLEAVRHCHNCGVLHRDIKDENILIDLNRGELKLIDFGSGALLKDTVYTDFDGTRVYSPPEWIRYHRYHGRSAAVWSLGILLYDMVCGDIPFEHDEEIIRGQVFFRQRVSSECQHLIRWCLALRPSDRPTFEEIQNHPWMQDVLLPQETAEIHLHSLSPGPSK

For orientation: IC50 means the concentration that gives 50% inhibition. As for `CCN(CC)c1ccc(NC(=O)c2cc3ccccc3o2)c(C)c1`, the IC50 is > 66.2 µM (inactive) in the test on CHO-K1; > 49.8 µM (inactive) in test [1]; 2.43 µM (active) in test [2]; > 49.8 µM (inactive) in test [3]; > 88.8 µM (inactive) at Orexin receptor type 2 [4]; > 50 µM (inactive) on Orexin receptor type 2 [5].

One may read the EC50 as the concentration that produces a half-maximal response. Turning to `CSc1nc2ccc3nc(NC(=O)c4ccccc4)sc3c2s1`, the EC50 in [6] is 43.8 µM (active); in test [7] it was 38.3 µM (active); in the test on H4, > 120 µM (not active). Also, the IC50 in the test on CHO-K1 is > 66.2 µM (inactive); in [1], > 49.7 µM (inactive); in test [2], 1.13 µM (active); in test [3], 2.05 µM (active); at Orexin receptor type 2 [4] it was > 88.8 µM (inactive); on Orexin receptor type 2 [5], > 50 µM (inactive).

As for `Cc1csc(C(=O)Nc2nc3ccccc3s2)c1`, the 50% inhibitory concentration (IC50) in test [8] was 3.2 µM (active); on Caspase-3 [9], 34 µM (active); in [10] it was 21.4 µM (active); at Caspase-3 [11] it was 3.6 µM (active); in test [12] it was 19.2 µM (active); in test [13] it was 2.8 µM (active). Further, the figures for the IC50 in test [14] and in [15] were 23.4 µM (active) and 1.8 µM (active), respectively.

As for `Cc1ccccc1-c1noc(/C(C#N)=C\c2ccc3c(c2)OCCO3)n1`, the 50% inhibitory concentration (IC50) was 2.16 µM (active) at Caspase-3 [9], > 99 µM (inactive) in [10], 5.42 µM (active) in [12] and 4.82 µM (active) in test [14].

Broadly, the Ki is a measure of affinity in units of concentration, obtained from inhibition or displacement. `Cc1cc(=O)n2[nH]cc(C(=O)NCc3ccccc3)c2n1`: the inhibitory constant (Ki) in test [16] was 3.98 µM (active).
